Experimental data from ChEMBL document CHEMBL3734744, “Synthesis, 3D pharmacophore, QSAR and docking studies of novel quinazoline derivatives with nitric oxide release moiety as preferential COX-2 inhibitors” (Medchemcomm, 2015).

Legend:
Rattus norvegicus [1] = test: Antiinflammatory activity in Sprague-Dawley rat assessed as inhibition of carrageenan-induced paw edema at 80 mg/kg, po administered 30 mins prior to carrageenan challenge measured at 3 hrs by plethysmometer relative to meloxicam; format: functional
[2] = target: T1, Prostaglandin G/H synthase 2 (Ovis aries, UniProt P79208); test: Inhibition of ovine COX2 after 5 mins by enzyme immuno assay
T1 sequence (P79208 whole entry): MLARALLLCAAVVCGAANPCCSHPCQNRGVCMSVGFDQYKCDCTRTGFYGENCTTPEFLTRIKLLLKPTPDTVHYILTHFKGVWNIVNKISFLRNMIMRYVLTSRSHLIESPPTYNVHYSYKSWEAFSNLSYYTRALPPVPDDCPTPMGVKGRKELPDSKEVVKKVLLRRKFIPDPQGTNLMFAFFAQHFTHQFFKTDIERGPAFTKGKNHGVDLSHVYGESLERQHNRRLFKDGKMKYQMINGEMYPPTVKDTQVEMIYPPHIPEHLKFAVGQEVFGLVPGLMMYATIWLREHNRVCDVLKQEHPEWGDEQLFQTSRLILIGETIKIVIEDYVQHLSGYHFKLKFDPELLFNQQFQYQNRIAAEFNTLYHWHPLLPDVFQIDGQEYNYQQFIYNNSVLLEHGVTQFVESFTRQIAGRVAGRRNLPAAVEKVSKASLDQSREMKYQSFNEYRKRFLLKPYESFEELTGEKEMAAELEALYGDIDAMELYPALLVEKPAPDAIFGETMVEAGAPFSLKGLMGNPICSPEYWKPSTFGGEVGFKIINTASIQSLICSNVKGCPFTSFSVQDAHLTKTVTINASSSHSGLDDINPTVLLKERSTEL

Ovis aries = species: Ovis aries; test: Selectivity index, ratio of IC50 for ovine COX1 to IC50 for ovine COX2
[3] = target: T2, Prostaglandin G/H synthase 1 (Ovis aries, UniProt P05979); test: Inhibition of ovine COX1 after 5 mins by enzyme immuno assay
T2 sequence (P05979 whole entry): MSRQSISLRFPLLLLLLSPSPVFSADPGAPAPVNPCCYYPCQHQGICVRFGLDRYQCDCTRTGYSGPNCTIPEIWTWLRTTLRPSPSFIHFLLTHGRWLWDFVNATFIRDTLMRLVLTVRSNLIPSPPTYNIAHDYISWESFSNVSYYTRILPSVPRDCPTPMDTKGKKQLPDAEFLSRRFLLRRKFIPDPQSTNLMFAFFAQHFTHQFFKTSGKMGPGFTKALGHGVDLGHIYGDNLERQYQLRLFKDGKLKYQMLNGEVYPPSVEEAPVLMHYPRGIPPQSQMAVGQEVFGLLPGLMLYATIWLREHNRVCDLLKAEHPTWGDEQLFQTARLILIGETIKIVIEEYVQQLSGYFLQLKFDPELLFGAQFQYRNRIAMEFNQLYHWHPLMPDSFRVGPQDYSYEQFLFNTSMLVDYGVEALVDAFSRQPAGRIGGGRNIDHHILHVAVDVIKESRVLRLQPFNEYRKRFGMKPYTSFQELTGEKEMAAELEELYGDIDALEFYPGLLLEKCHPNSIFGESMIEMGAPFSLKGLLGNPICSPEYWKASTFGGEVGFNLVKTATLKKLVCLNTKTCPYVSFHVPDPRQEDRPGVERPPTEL

Rattus norvegicus [4] = test: Antiinflammatory activity in Sprague-Dawley rat assessed as inhibition of carrageenan-induced paw edema at 80 mg/kg, po administered 30 mins prior to carrageenan challenge measured at 1 hr by plethysmometer; format: functional
Rattus norvegicus [5] = test: Antiinflammatory activity in Sprague-Dawley rat assessed as inhibition of carrageenan-induced paw edema at 80 mg/kg, po administered 30 mins prior to carrageenan challenge measured at 2 hrs by plethysmometer; format: functional
Rattus norvegicus [6] = test: Antiinflammatory activity in Sprague-Dawley rat assessed as inhibition of carrageenan-induced paw edema at 80 mg/kg, po administered 30 mins prior to carrageenan challenge measured at 3 hrs by plethysmometer; format: functional
Serum = test: Induction of nitric oxide release in rat serum by Griess assay; format: functional
Rattus norvegicus [7] = test: Gastrointestinal toxicity in Wistar albino rat assessed as ulcer index at 10 mg/kg/day, po administered for 3 days measured after 2 hrs post last dose; format: organism-based; details: in vivo
Rattus norvegicus [8] = test: Gastrointestinal toxicity in Wistar albino rat assessed as mild erosion at 10 mg/kg/day, po administered for 3 days measured after 2 hrs post last dose by haematoxylin/eosin staining-based microscopic analysis; format: organism-based; details: in vivo
Rattus norvegicus [9] = test: Gastrointestinal toxicity in Wistar albino rat assessed as intact mucosa at 10 mg/kg/day, po administered for 3 days measured after 2 hrs post last dose by haematoxylin/eosin staining-based microscopic analysis; format: organism-based; details: in vivo
Rattus norvegicus [10] = test: Gastrointestinal toxicity in Wistar albino rat assessed as irregular mucosa at 5 mg/kg/day, po administered for 3 days measured after 2 hrs post last dose by haematoxylin/eosin staining-based microscopic analysis; format: organism-based; details: in vivo
Rattus norvegicus [11] = test: Gastrointestinal toxicity in Wistar albino rat assessed as ulceration at 5 mg/kg/day, po administered for 3 days measured after 2 hrs post last dose by haematoxylin/eosin staining-based microscopic analysis; format: organism-based; details: in vivo
Rattus norvegicus [12] = test: Gastrointestinal toxicity in Wistar albino rat assessed as ulcer index at 5 mg/kg/day, po administered for 3 days measured after 2 hrs post last dose; format: organism-based; details: in vivo
Rattus norvegicus [13] = test: Gastrointestinal toxicity in Wistar albino rat assessed as ulceration at 10 mg/kg/day, po administered for 3 days measured after 2 hrs post last dose by haematoxylin/eosin staining-based microscopic analysis; format: organism-based; details: in vivo

Row | Compound | inhibition in vivo at 80 mg/kg (Rattus norvegicus [1]) [%] | IC50 [2] [µM] | Ratio IC50 (Ovis aries) | IC50 [3] [µM] | inhibition in vivo at 80 mg/kg (Rattus norvegicus [4]) [%] | inhibition in vivo at 80 mg/kg (Rattus norvegicus [5]) [%] | inhibition in vivo at 80 mg/kg (Rattus norvegicus [6]) [%] | Activity (Serum) [µmol/L] | UI (Rattus norvegicus [7]) | Activity (Rattus norvegicus [8]) | Activity (Rattus norvegicus [9]) | Activity (Rattus norvegicus [10]) | Activity (Rattus norvegicus [11]) | UI (Rattus norvegicus [12]) | Activity (Rattus norvegicus [13])
1 | Cc1nc2ccccc2c(=O)n1NC(=O)NC(C)(C)C | 82.5 | 6.53 | 5.28 | 34.5 | 10.4 | 29.8 | 51 |  |  |  |  |  |  |  | 
2 | CC(C)(C)NC(=O)Nn1c(CO[N+](=O)[O-])nc2ccccc2c1=O | 70.6 | 12.5 | 3.57 | 44.6 | 6.4 | 14.1 | 43.7 | 10.76 | 0.9 | Toxic |  |  |  |  | 
3 | O=C(NC1CCCCC1)Nn1c(CO[N+](=O)[O-])nc2ccccc2c1=O | 80.6 | 6.86 | 5.03 | 34.6 | 8 | 18.7 | 49.9 | 28.53 | 0.4 |  | Non-toxic |  |  |  | 
4 | Cc1nc2ccccc2c(=O)n1NC(=O)NC1CCCCC1 | 88.6 | 5 | 4.74 | 23.8 | 12 | 41.9 | 54.8 |  |  |  |  |  |  |  | 
5 | Cc1nc2ccccc2c(=O)n1NC(=S)Nc1ccccc1 | 100 | 3.67 | 5.13 | 18.9 | 14.4 | 42.9 | 61.9 |  |  |  |  |  |  |  | 
6 | COc1ccc2c(c1)c(CC(=O)O)c(C)n2C(=O)c1ccc(Cl)cc1 [INDOMETHACIN] |  |  |  |  |  |  |  |  |  |  |  | Toxic | Toxic | 1.8 | 
7 | Cc1cnc(NC(=O)C2=C(O)c3ccccc3S(=O)(=O)N2C)s1 [MELOXICAM] |  |  |  |  | 20.8 | 43.4 | 61.9 |  | 0.6 |  |  |  |  |  | Toxic
